Assay results from patent US20090076571A1, “MRI-Guided Photodynamic Therapy For Cancer” (priority 2004, published 2009).

Experiments:
[1] = T1 relaxivity of polymer complexes; type: physicochemical; details: Siemens Trio 3T scanner, inversion recovery sequence
[2] = system: MDA-MB-231 human breast carcinoma xenograft tumor; experiment: Contrast-enhanced MR imaging of tumor-bearing mice after injection of polymer conjugates; type: in vivo, female athymic nu/nu mice; details: for Contrast in all tissues including tumor, heart and liver compared to pre-contrast: 5 minutes post injection; for Increase in signal intensity of tumor as compared to precontrast: 2 hours post injection, semi-quantitative evaluation, 6 mice per group
Description: Female athymic nu/nu mice were purchased from NCI (Frederick, Md.) at the age of 6 weeks. To generate tumor models, each mouse was injected subcutaneously with 2×10^6 MB-231 cells in 100 μl of culture media mixed with 100 μl of BD MATRIGEL, a solubulized basement membrane preparation extracted from EHS mouse sarcoma, in the flank region. Magnetic resonance imaging and photodynamic therapy studies were carried out at an average tumor size of 25-40 mm^3.
MR imaging was performed on a Siemens Trio 3T MRI scanner. The animals were anesthetized by intra-peritoneal or intra-muscular injection of the anesthetic (mixture of ketamine—80 mg/kg body weight and xylazine—12 mg/kg body weight).
For imaging purposes, the animals were placed in the human wrist coil and pre-contrast images (prior to the injection of the polymer chelate system containing the drug and the contrast agent) were obtained using a 3D FLASH (Fast Low Angle Shot) sequence.
After obtaining the pre-contrast images, the macromolecular complexes were injected at a dose of 0.09 mmol Gd/kg body weight and 6 mg/kg of Mce6 by tail vein injection. Image acquisition was set at 5, 30, 60, 120 minutes and 24 hours post injection. Animal imaging was performed using the multi-phase T1 weighted sequence. The repetition time was about 6 milliseconds to 2 milliseconds, respectively; consistent with the 4 to 8 cm FIV (field of view) and 0.5 mm slice thickness chosen for each animal. The imaging volume was acquired before injection and in rapid succession after injection. Each acquisition required about 30 seconds.
MR imaging. […] FIG. 7 and FIG. 8 show 2D coronal MR images through tumor and heart respectively. The upper panel of FIG. 7 represents mice with Pol1 and the lower panel upper represents mice with Pol2. The upper panel of FIG. 8 represents mice with Pol1 and the lower panel represents mice with Pol2. […] The higher signal in heart may be due to high molecular weight fractions of the control polymer.
Increase in Signal intensity of tumor for both groups as compared to precontrast at 2 hours is 100%. Signal intensity at 18 hours post injection was at least 30% higher than precontrast for both Pol1 and Pol2. Quantitative evaluation of signal intensities using IDL was performed to corroborate the data obtained from semi-quantitative analysis.

[3] = system: MDA-MB-231 human breast carcinoma xenograft tumor; experiment: Efficiency of photodynamic therapy (650 nm laser irradiation of tumor); type: in vivo, female athymic nu/nu mice; details: for Tumor volume after photodynamic therapy: FIG. 11, irradiation 650 nm, 6 mice per group
Description: Molecular weight determination was carried out by Size Exclusion Chromatography (SEC) on an AKTA FPLC system with a Superdex 200/Superose 6 column equipped with UV and refractive index detectors (Amersham Biosciences Corp., Piscataway, N.J.). The FPLC columns were calibrated with poly[N-(2-hydroxypropyl)methacrylamide] standards. ^1H NMR spectra were acquired on a Varian INOVA 400 at 400 MHz at 25° C. ESI-MS spectra were acquired on a PE Sciex API III Mass Spectrometer at the University of Utah Mass Spectrometry and Proteonomic Core Facility. Meso chlorin content was determined on Cary Win UV-Vis spectrometer. Gd content was determined using Inductively Coupled argon Plasma-Optical Emission Spectrometer (ICP-OES) (Perkin Elmer, Norwalk, Conn., Optima 3100XL). T1 relaxivity measurements for the final conjugates were acquired on a Siemens Trio 3T MRI scanner using standard inversion recovery sequence. Photodynamic therapy was carried out via Diode Odyssey laser (650nm) (CAO Group, UT).
Female athymic nu/nu mice were purchased from NCI (Frederick, Md.) at the age of 6 weeks. […] Magnetic resonance imaging and photodynamic therapy studies were carried out at an average tumor size of 25-40 mm^3.
Then the tumor was irradiated, 2 hours and 18 hours post-injection, using light of wavelength 650 nm (Denlaser) with an input of 220 mW/cm^2 energy and 0.5 mm aperture for irradiation. The time of irradiation was 15 minutes. The mice were then kept away from direct light to avoid extraneous irradiation and the reduction in tumor volume was measured.
Efficiency of Photodynamic therapy.

Row | Substance | Relaxivity [1] [mM − 1 sec − 1] | Contrast in all tissues including tumor, heart and liver compared to pre-contrast [2] | Increase in signal intensity of tumor as compared to precontrast [2] [%] | Tumor volume after photodynamic therapy [3] | Mice with tumors larger than 10% of the body weight, sacrificed ([3]; out of 6 mice in the group) | Mice surviving for the time period of the experiment ([3]; 90 days, group of 6 mice)
1 | Gd (III)-DOTA-linker-PLGA [Pol2] | 8.33 | increased contrast | 100 | rapid increase in tumors | 5 | –
2 | Gd (III)-DOTA-linker-PLGA-Mce6 [Pol1] | 8.46 | increased contrast | 100 | reduction in tumor volume or slowed tumor growth | – | 4 out of 6
